In patent publication US10195156B2, “Compounds and compositions for intracellular delivery of agents” (ModernaTX, Inc., priority 2015, dated 2019):
Values belong to the compound of their own block, whether it stands above or below them.

Key:
[1] = Particle size and polydispersity index of nanoparticle compositions (Zetasizer Nano ZS); format: physicochemical
Method in brief: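 Measured in 1×PBS by Zetasizer Nano ZS.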

[2] = Encapsulation efficiency of RNA (QUANT-IT RIBOGREEN RNA assay); format: physicochemical
Method in brief: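 RiboGreen fluorescence (ex ~480, em ~520 nm) measured after 15 min at 37 °C on samples at ~5 μg/mL in TE, pH 7.5, ± 2% Triton X-100 solution. After blank subtraction, free RNA is given as intact-sample signal divided by disrupted-sample signal.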

IL-6 = experiment: Cytokine production induced by sample formulations: IL-6; format: in vivo; details: mice, i.v., 0.5 mpk, 6 hours; for IL-6: in pg/mL (unit assumed)
Method in brief: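 Cytokine levels were quantified at 6 hours in mice given the nanoparticle compositions i.v. at 0.5 mpk. MC3 standard formulation and PBS served as comparators.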

hEPO mRNA expression = experiment: Expression of hEPO in CD-1 mice; format: in vivo; details: for Lipid/MC3 hEPO CD-1 (mice): hEPO expression relative to MC3, CD-1 mice
Description: FIG. 12 is a set of graphs illustrating hEPO expression levels in CD-1 mice dosed with compounds of the disclosure, compared to MC3. PBS is used as control. […] In graphs A-C numbers 1-14 refer to compositions containing the following: 1: Compound 73, 2: Compound 80, 3: Compound 70; 4: Compound 81; 5: Compound 69; 6: Compound 82; 7: Compound 83; 8: Compound 62; 9: Compound 84; 10: Compound 85; 11: Compound 86; 12: Compound 87; 13: MC3; 14: PBS.
FIG. 13 is a graph showing hEPO levels (pg/mL) in CD-1 mice up to ˜25 h after administration of a nanoparticle composition containing compounds of the disclosure, compared to a composition containing MC3. Numbers 1-13 refer to compositions containing the following: 1: Compound 73, 2: Compound 80, 3: Compound 70; 4: Compound 81; 5: Compound 69; 6: Compound 82; 7: Compound 83; 8: Compound 62; 9: Compound 84; 10: Compound 85; 11: Compound 86; 12: Compound 87; 13: MC3. […]

[3] = system: GFP expression in liver cells; experiment: Mouse liver immunohistochemistry (IHC) with GFP mRNA; format: in vivo; details: FIG. 11, i.v., 0.5 mpk, 6 h (MC3, CD-1) or 8 h (Compound 4, LDLR knockout)
Procedure: FIG. 11 is a pair of images comparing the results of a mouse liver immunohistochemistry (IHC) using mRNA expressing green fluorescent protein (GFP) after administration of nanoparticle compositions containing Compound 4 and MC3.
FIG. 16 is a graph showing GFP levels in the livers of LDLR knockout mice at 30 min to 24 h after intravenous administration of an eGFP RNA in a lipid composition containing Compound 4. The liver GFP levels were determined via IHC. The square markers represent the number of GFP positive cells following administration of a dose of 0.1 mpk of the composition. The circular markers represent the number of GFP positive cells following administration of a dose of 0.5 mpk of the composition.

[4] = system: modified luciferase (Luc) expression; experiment: Expression upon intramuscular administration of Luc mRNA and H10 mRNA formulations; format: in vivo; details: 6 hours after intramuscular administration
Procedure: Sample formulations including both modified luciferase (Luc) mRNA and H10 mRNA were prepared and administered intramuscularly at day 1 and day 21 and the resulting expression and immunogenicity were evaluated simultaneously. Formulations including compounds according to formula (20-I) were prepared and administered at doses of 0.001 and 0.01 mpk (e.g., doses of 0.0005 mpk of a formulation including Luc mRNA and a formulation including H10 mRNA or doses of 0.005 mpk of a formulation including Luc mRNA and a formulation including H10 mRNA). As shown in Table 20-4, the total flux was higher upon administration of the second dose for each composition and at each dose level. Total flux was higher for the higher dose level.

[5] = Table 1, rows without footnote mark
[6] = Table 1, rows without footnote mark (lipid:DOPE:cholesterol:PEG-DMG 40:20:38.5:1.5, Luc mRNA; MC3 standard formulation)
[7] = Table 5, hEPO mRNA, 40:20:38.5:1.5 Lipid:DOPE:Chol:PEG-DMG
[8] = Table 5, hEPO mRNA, 50:10:38.5:1.5 Lipid:DSPC:Chol:PEG-DMG
[9] = Table 20-1, rows without footnote mark

- PDI [1, 5]: 0.096
- Size (nm) [1, 6]: 87.8 nm
- PDI [1, 7]: 0.13
- Size (nm) [1, 7]: 87.5 nm
- EE (%) [2, 5]: 96.9%
- EE (%) [2, 7]: 93.79%
- IL-6 (IL-6; Table 4): 31
SMILES: CCCCCCCCCCCCN(CCCCCCCCCCCC)CCN(CCCCCCCCCCCC)CCN1CCN(CCN(CCCCCCCCCCCC)CCCCCC(=O)OCCCCC)CC1 [Compound 12, Pentyl 6-((2-(4-(2-((2-(didodecylamino)ethyl)(dodecyl)amino)ethyl)piperazin-1-yl)ethyl)(dodecyl)amino)hexanoate]
- hEPO expression in mice compared with MC3 (in words) (hEPO mRNA expression; Table 7a, mice): substantially higher
- Lipid/MC3 hEPO CD-1 (mice) (hEPO mRNA expression): 2.3

- PDI [1, 5]: 0.117
- Size (nm) [1, 6]: 86.2 nm
- PDI ([1]; Table 1b): 0.17
- Size (nm) ([1]; Table 1b): 74.7 nm
- PDI [1, 8]: 0.11
- Size (nm) [1, 8]: 76.5 nm
- PDI ([1]; Table 17-1): 0.138
- Size (nm) ([1]; Table 17-1): 83.8 nm
- PDI ([1]; Table 19-1): 0.122
- Size (nm) ([1]; Table 19-1): 83.3 nm
- PDI [1, 9]: 0.117
- Size (nm) [1, 9]: 84.0 nm
- PDI ([1]; Table 21-1): 0.1191
- Size (nm) ([1]; Table 21-1): 91.4 nm
- EE (%) [2, 5]: 97.70%
- EE (%) ([2]; Table 1b): 97.3%
- EE (%) [2, 8]: 97.37%
- EE (%) ([2]; Table 17-1): 98.0%
- EE (%) ([2]; Table 19-1): 97.6%
- EE (%) [2, 9]: 97.4%
- EE (%) ([2]; Table 21-1): 98.1%
- IL-6 (IL-6; Table 4): 92
- IL-6 (IL-6; Table 17-4): 107
- IL-6 (IL-6; Table 19-4): 65.7
- IL-6 (IL-6; Table 20-4, formula (20-I)): 119.5
- IL-6 induction, rank within the named table (in words) (IL-6): highest IL-6 and IP-10 levels
SMILES: CCCCCC=CCC=CCCCCCCCCC(CCCCCCCCC=CCC=CCCCCC)OC(=O)CCCN(C)C (centres unmarked) [MC3, heptatriaconta-6,9,28,31-tetraen-19-yl 4-(dimethylamino)butanoate, reference compound]
- Lipid/MC3 hEPO CD-1 (mice) (hEPO mRNA expression): 1
- GFP protein expression in liver cell types (in words) [3]: observed in both hepatocytes and Kupffer cells
- Total flux (p/s) 0.001 mpk Dose 1 ([4]; 0.001 mpk, Dose 1): 1.23E+06 p/s
- Total flux (p/s) 0.001 mpk Dose 2 ([4]; 0.001 mpk, Dose 2): 1.09E+06 p/s
- Total flux (p/s) 0.01 mpk Dose 1 ([4]; 0.01 mpk, Dose 1): 1.79E+07 p/s
- Total flux (p/s) 0.01 mpk Dose 2 ([4]; 0.01 mpk, Dose 2): 3.13E+07 p/s
